Laboratory results taken from ChEMBL document CHEMBL4257572, “Semisynthesis of ent-norstrobane diterpenoids as potential inhibitor for factor Xa” (Bioorg Med Chem Lett, 2018).

molecular target: Coagulation factor X (Homo sapiens, UniProt P00742); test: Inhibition of human coagulation factor 10a using Z-D-Arg-Gly-Arg-pNA.2HCl as substrate preincubated for 15 mins followed by substrate addition by UV absorption assay
Sequence (P00742 41-179 limits assumed): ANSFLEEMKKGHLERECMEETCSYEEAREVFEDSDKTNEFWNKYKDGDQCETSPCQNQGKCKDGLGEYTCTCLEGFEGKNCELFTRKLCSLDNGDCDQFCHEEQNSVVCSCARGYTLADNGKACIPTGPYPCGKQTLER
Sequence (P00742 235-488 limits assumed): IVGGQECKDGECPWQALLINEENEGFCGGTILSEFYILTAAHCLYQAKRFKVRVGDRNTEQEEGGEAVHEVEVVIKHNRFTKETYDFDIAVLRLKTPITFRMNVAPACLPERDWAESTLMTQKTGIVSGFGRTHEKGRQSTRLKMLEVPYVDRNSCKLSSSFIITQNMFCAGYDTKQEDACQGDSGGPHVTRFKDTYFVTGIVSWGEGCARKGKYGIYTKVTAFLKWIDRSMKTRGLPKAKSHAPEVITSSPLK

Compound	IC50
CC(=O)O[C@@H]1CC[C@@]2(C)[C@@H]3CC[C@](C)(CO)C=C3CC[C@@H]2C1(C)C	8.45 µM
CC1(C)[C@H](O)CC[C@@]2(C)[C@@H]3CC[C@](C)([C@@H](O)CO)C=C3CC[C@H]12 [DARUTIGENOL]	11.4 µM
CC(=O)OC[C@]1(C)C[C@@H](OC(C)=O)C[C@@]2(C)[C@@H]3CC[C@](C)([C@@H](O)CO)C=C3CC[C@H]12	5.62 µM
CC(=O)O[C@@H]1CC[C@@]2(C)[C@@H]3CC[C@](C)(O)CC=C3CC[C@@H]2C1(C)C	5.73 µM
CC1(C)OCC([C@]2(C)C=C3CC[C@@H]4[C@](C)(CO)C[C@@H](O)C[C@@]4(C)[C@@H]3CC2)O1 (stereo not given in full)	7.16 µM

Compounds with a lower IC50, results first:

IC50	Compound
3.03 µM	CC(=O)O[C@@H]1CC[C@@]2(C)[C@@H]3CC[C@](C)([C@@H](O)CO)C=C3CC[C@@H]2C1(C)C
2.57 µM	C[C@@]1(CO)C[C@@H](O)C[C@@]2(C)[C@@H]3CC[C@](C)([C@@H](O)CO)C=C3CC[C@H]12 [KIRENOL]
1.07 µM	CC(=O)OC[C@]1(C)C[C@@H](OC(C)=O)C[C@@]2(C)[C@@H]3CC[C@](C)(CO)C=C3CC[C@H]12
1.02 µM	CC1(C)OCC([C@]2(C)C=C3CC[C@@H]4C(C)(C)[C@H](O)CC[C@@]4(C)[C@@H]3CC2)O1 (stereo not given in full)
0.081 µM	CC(=O)OC[C@]1(C)C[C@@H](OC(C)=O)C[C@@]2(C)[C@@H]3CC[C@](C)(O)CC=C3CC[C@H]12
